Data: US8048918B2, “Treatment of hyperproliferative diseases” (Vampex Limited, priority 2000, dated 2011)
Where no end group is shown, it is not given here.

What was measured:
[1] = target: T1, RalDHI (Rattus norvegicus, UniProt P51647); conditions: Penzes et al. 1997; Chen and Juchau 1997; cited from earlier work
T1 sequence (P51647 1-501): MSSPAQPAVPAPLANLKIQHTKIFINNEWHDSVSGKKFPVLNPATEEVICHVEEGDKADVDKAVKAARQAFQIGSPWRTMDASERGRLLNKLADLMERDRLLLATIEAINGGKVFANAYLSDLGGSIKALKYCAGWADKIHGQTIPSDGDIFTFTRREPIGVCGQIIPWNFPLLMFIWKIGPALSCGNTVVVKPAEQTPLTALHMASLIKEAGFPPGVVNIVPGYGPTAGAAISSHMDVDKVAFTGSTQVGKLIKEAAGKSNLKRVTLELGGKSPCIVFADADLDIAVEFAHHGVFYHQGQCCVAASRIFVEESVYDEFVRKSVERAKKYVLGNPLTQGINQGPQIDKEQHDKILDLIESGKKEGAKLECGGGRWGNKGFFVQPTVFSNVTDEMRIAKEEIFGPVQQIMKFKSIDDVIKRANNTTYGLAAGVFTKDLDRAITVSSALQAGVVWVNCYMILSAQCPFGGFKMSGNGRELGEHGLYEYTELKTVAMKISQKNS

[2] = tested on: human dermal fibroblast cells; assay: proliferation assay of human dermal fibroblast cells; type: cell-based; conditions: P142 1 mg/ml, peptides 6 μM; 24 hours and 4 days after treatment; FIG. 9
Procedure: Fibroblast cell culture is performed essentially as described for culture of hyperproliferative psoriatic keratinocytes (Example 3), except that following irrigation with complete culture medium, the dermal portion is incubated with 1 mg/ml of collagenase (Sigma) in 20 ml DMEM in a 50 ml centrifuge tube for 16 hours at 37° C. Then 20 ml DMEM containing 5% foetal calf serum and 1% antibiotic/antimycotic solution (Gibco) is added and the cells seeded at 37° C. in DMEM medium+additions at a density of 2500 cells/cm^2 in a 25 cm^2 cell culture flask. Medium is replaced every 48 hours and cells passaged when confluent.
Fibroblast cell culture and experiments are performed essentially as described for culture of hyperproliferative psoriatic keratinocytes (above), except that following irrigation with complete culture medium, the dermal portion is processed further. Reference is made to fibroblast culture protocols set out above.
Proliferation of cells is assayed by direct cell counting essentially as for determination of proliferation in keratinocyte cell cultures. RDH, ADH, RalDH inhibitors are found to reduce proliferation.

[3] = tested on: hyperproliferative psoriatic keratinocytes; assay: differentiation assay (K1/K10 mRNA, Northern blot / RT-PCR) on hyperproliferative psoriatic keratinocytes; type: cell-based, human; conditions: peptides 6 μM, Ca2+ 1.2 mM, RBP 0.6 μM
Procedure: RNA extraction is carried out according to the manufacturers instructions using the RNeasy kit (QIAGEN). 20 μg of RNA for each treatment was separated on a 1.2% agarose (1.8% formaldehyde) gel and transferred onto a nylon membrane (Zeta probe GT membranes, BioRad) by capillary transfer. The RNA is fixed to the membrane by UV crosslinking. DNA probes for the differentiation markers K1 and K10(50 ng) are labelled with [α-^32P] dCTP using the Prime-It RmT Primer labeling kit (Stratagene) following the manufacturer's instructions. Unincorporated nucleotides are removed by elution through a Microspin G25 column (Pharmacia Biotech). The blots are wetted in 0.25M sodium phosphate (pH 7.2)/7% SDS for 30 minutes at 65° C. Fresh hybridisation solution is added along with the radiolabelled probe and the blot is hybridised overnight at 65° C.
The blot is washed for 2×5 minutes in 0.25M sodium phosphate (pH 7.2), 7% SDS and then for 2×5 minutes in 20 mM sodium phosphate (pH 7.2), 5% SDS at 65° C. The wash steps are repeated until a clear distinction can be made between the signal and non-specific background. The blot is exposed to x-ray film for 24 hours before developing.
Synthesis of mRNA for the K1 and K10 keratin (markers for commitment to terminal differentiation) is examined by quantitative reverse transcription PCR (RT-PCR). Synthesis of mRNA for Cyclin D (a marker for cell proliferation) is also assayed by RT-PCR. Standard protocol for RT-PCR is followed as recommended by the manufacturer of the PCR machine (PE 2400) using 1 μg RNA from each keratinocyte culture. Suitable primers for RT-PCR are designed based on the human sequences of K1 and K10 deposited in GenBank. Northern blots are also performed: cells are harvested, RNA extracted and 20 μg RNA loaded into each well of a formaldehyde/agarose gel. The RNA is blotted onto a nylon membrane by capillary transfer and expression of K1 mRNA is determined by Northern hybridisation with a radiolabelled DNA probe.
Next, hyperproliferative epidermal keratinocytes are obtained, isolated and cultured as described above in Example 3. Hyperproliferative psoriatic keratinocytes are cultured as described above in serum-free medium with or without the addition of […] human retinol binding protein. At confluence the cells are treated (see Table 3 below) for 96 hours with peptides to 6 μM (medium replaced after 48 hours). Treatments shown in the Table 3 are for duplicate T-25 flasks (2×7 ml for each treatment).
The final concentrations are: Ca^2+ 1.2 mM, RBP 0.6 μM, peptides 6 μM.
Expression of K1 and K10 markers is determined as described above in Example 4. […]
Synthesis of mRNA for markers of proliferation and differentiation is also examined by semi-quantitative reverse transcription PCR (RT-PCR). […]

[4] = tested on: COS-7 cells; assay: proliferation assay of COS-7 cells (Coulter counter); type: cell-based; conditions: P142 1 mg/ml, peptides 6 μM; 24 and 48 hours after treatment; FIG. 8
Procedure: (§1) […] (COS1 and COS7) are purchased from the European Cell Culture Collection, thawed and propagated according to the instructions from the supplier; cells are cultured essentially in the same manner as for normal human keratinocytes (Example 3 above), except that cells are seeded at 20 000 cells/cm^2, with only one treatment with antibody P142, control immunoglobulin, peptide 589, peptide 592 or control peptide 24 hrs after seeding.
(§2) Proliferation is assayed by counting cells in a Coulter counter, as described above.

[5] = tested on: COS-1 cells; assay: proliferation assay of COS-1 cells (Coulter counter); type: cell-based; conditions: P142 1 mg/ml, peptides 6 μM; 24 and 48 hours after treatment; FIG. 7
Procedure: as §1, §2

Compound	IC50 [1] [µM]	fibroblast proliferation (cell numbers) [2]	differentiation (expression of K1 and K10 markers) [3]	differentiation (expression of K1 and K10 markers) ([3]; listed as peptide 389)	proliferation of Cos-7 cells (cell numbers) [4]	proliferation of Cos-1 cells (cell numbers) [5]
CC(C)=CCCC(C)=CC=O [Citral, 3,7-dimethyl-2,6-octadienal]	1	–	–	–	–	–
GRVRLLNNWDVCA	–	greater reduction in proliferation	enhances the expression of K1 and K10 markers	reversed	marked reduction in proliferation	marked reduction in proliferation
